We go through six compounds from paper PMC11204291, “Structural characterization of macro domain–containing Thoeris antiphage defense systems” (Science Advances, 2024).

The target in assay [1] is T1, EcThsA (ThsA TM-macro effector), macro domain (Escherichia coli, UniProt A0A0H2V895, F250A/I219A/K249E/Q207E/R182E/R221E).
T1 construct: gene c2400; EcThsA^Macro; residues 62 to 278
T1 sequence (A0A0H2V895 62-278 R182E/Q207E/I219A/R221E/K249E/F250A): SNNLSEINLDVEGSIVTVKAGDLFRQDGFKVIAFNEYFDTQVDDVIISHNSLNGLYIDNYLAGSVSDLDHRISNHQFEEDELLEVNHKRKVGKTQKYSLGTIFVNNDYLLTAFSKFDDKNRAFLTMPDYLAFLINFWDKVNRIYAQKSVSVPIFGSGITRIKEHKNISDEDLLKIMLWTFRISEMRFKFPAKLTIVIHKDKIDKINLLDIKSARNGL
Kind of assay: ITC (~[…]); STD NMR. The assay is classed as binding.

The target in assay [2] is T2, EcThsA (ThsA TM-macro effector), macro domain (Escherichia coli, UniProt A0A0H2V895).
T2 construct: gene c2400; EcThsA^Macro; residues 62 to 278
T2 sequence (A0A0H2V895 62-278): T1 sequence (A0A0H2V895 62-278 R182E/Q207E/I219A/R221E/K249E/F250A)
Kind of assay: crystal structure of soaked complex ([…] Å); STD NMR. It counts as binding.

The target in assay [3] is T3, EcThsA (ThsA TM-macro effector), macro domain (Escherichia coli, UniProt A0A0H2V895, N114A).
T3 construct: gene c2400; EcThsA^Macro; residues 62 to 278
Kind of assay: STD NMR. It counts as binding.

The target of assay [4] is T4, PcThsA (ThsA TM-macro effector), macro domain (Pseudomonas corrugata, UniProt A0A7Y5Z1U6).
T4 construct: gene HNO91_03675; PcThsA^Macro; residues 63 to 278
T4 sequence (A0A7Y5Z1U6 entry or part of it): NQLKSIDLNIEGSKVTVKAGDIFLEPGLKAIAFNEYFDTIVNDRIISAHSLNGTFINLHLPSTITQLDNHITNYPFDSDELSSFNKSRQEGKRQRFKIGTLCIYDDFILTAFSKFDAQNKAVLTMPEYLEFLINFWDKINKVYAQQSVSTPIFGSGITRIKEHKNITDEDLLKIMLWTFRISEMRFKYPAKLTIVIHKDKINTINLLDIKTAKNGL
Kind of assay: crystal structure ([…] Å) with copurified ligand; LC-MS. The assay is classed as binding.

In assay [5] the target is T2, EcThsA (ThsA TM-macro effector), macro domain. Put plainly: ligand-induced self-aggregation of purified protein (turbidity, SDS-PAGE). The assay is classed as binding.
For assay [6], the target named is T1, EcThsA (ThsA TM-macro effector), macro domain. Put plainly: ITC. It counts as binding.
The target of assay [7] is T5, EcThsB1, TIR domain (Escherichia coli, UniProt A0A0H2V8B5).
T5 construct: gene TcpC; EcThsB1^TIR; residues 165 to 307
T5 sequence (A0A0H2V8B5 165-307 limits assumed): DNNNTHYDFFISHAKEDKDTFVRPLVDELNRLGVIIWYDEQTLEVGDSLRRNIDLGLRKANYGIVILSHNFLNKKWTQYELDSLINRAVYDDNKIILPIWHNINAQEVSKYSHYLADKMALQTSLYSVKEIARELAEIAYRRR
Kind of assay: real-time 1H NMR NADase assay. The assay is classed as biochemical.

For assay [8], the target named is T5, EcThsB1, TIR domain. Put plainly: 1H NMR base-exchange assay. It counts as biochemical.
The target in assay [9] is macro domain of EcThsA (EcThsA^Macro; residues 62 to 278), wild type (E. coli CFT073). Kind of assay: SEC-MALS; Superdex 200 5/150 Increase equilibrated in gel filtration buffer, 30 μl of EcThsA^Macro at 0.25 ml/min; no ligand; monomer to dimer. In general terms: Size exclusion chromatography separates by hydrodynamic size, large species first.
For assay [10] the target is unchanged. Put plainly: aggregation assay (SDS-PAGE of soluble and insoluble fractions); protein 47 μM incubated with 1 mM ADPR (or 1 mM IAD) at 4°C for 1 hour; higher-order self-association of the dimers.

Broadly, the Kd is the equilibrium constant for the complex coming apart. A higher Kd goes with a looser complex. By stoichiometry N is commonly meant a count of units in the complex or per binding partner.

Some results are limits rather than exact numbers.

`Nc1ncnc2c1ncn2[C@@H]1O[C@H](COP(=O)(O)OP(=O)(O)OC[C@H]2O[C@H](O)[C@H](O)[C@@H]2O)[C@@H](O)[C@H]1O` [ADPR]: in [1], the Kd is 4.6 ± 0.5 µM. The “crystal structure of soaked complex (2.1 Å); STD NMR” value in assay [2] was “we observed continuous electron density for a molecule corresponding to ADPR in a highly conserved cleft”. For the same compound, the “STD NMR” value in assay [3] was “The N114A mutant could still bind ADPR (Fig. 1I), but the STD NMR signal intensities were different”.
With `Nc1ncnc2c1ncn2[C@@H]1O[C@H](COP(=O)(O)OP(=O)(O)OC[C@H]2O[C@@H](n3ccnc3)[C@H](O)[C@@H]2O)[C@@H](O)[C@H]1O` [IAD], the “crystal structure (1.6 Å) with copurified ligand; LC-MS” value in assay [4] is on record as “revealed that the PcThsA^Macro bound nucleotide has a mass corresponding to IAD”. For the same compound, the “ligand-induced self-aggregation of purified protein (turbidity, SDS-PAGE)” value in [5] was “demonstrating that only ADPR and IAD can trigger self-aggregation of EcThsA^Macro”. Further, the Kd in assay [6] turned out to be 0.167 ± 0.091 µM.
For the compound `NC(=O)c1ccc[n+]([C@@H]2O[C@H](COP(=O)([O-])OP(=O)(O)OC[C@H]3O[C@@H](n4cnc5c(N)ncnc54)[C@H](O)[C@@H]3O)[C@@H](O)[C@H]2O)c1` [NAD^+], at EcThsB1, TIR domain [7], the “real-time 1H NMR NADase assay” value is “could use NAD^+ as a substrate to produce nicotinamide and ADP ribose (ADPR)”.
For `NCCc1c[nH]cn1` [histamine], the “1H NMR base-exchange assay” value at EcThsB1, TIR domain [8] is on record as “EcThsB1^TIR could use the histidine catabolite histamine as a substrate in base-exchange reactions, but not histidine”.
With `c1c[nH]cn1` [imidazole], the “1H NMR base-exchange assay” value at EcThsB1, TIR domain [8] was “only imidazole, histamine, and thiazole were observed to undergo base-exchange reactions with NAD^+ in the presence of EcThsB1^TIR”.
“macro domain of EcThsA (EcThsA^Macro; residues 62 to 278), wild type (domain or fragment)” came in with a stoichiometry N in assay [9] of 2. Moreover, the percent of the protein in the insoluble fraction after incubation with ADPR or IAD in assay [10] is more than 50%.
